Laboratory results as given in patent publication US10829473B2, “Modulators of the cystic fibrosis transmembrane conductance regulator protein and methods of use” (AbbVie Overseas S.Á.R.L., priority 2017, dated 2020).
pEC50: −log10 of the molar value. Like-named read-outs stand apart in the source and are kept apart here.

Target: T1, F508delCFTR (Homo sapiens, UniProt P13569, DEL508-508)
T1 construct: expressed in transfected cells; host or cells: CFBE41o- human lung derived epithelial cells (CFBE41o-F508delCFTR-HRP), doxycycline-inducible
T1 sequence (P13569 with tags, fused parts or gaps DEL508-508): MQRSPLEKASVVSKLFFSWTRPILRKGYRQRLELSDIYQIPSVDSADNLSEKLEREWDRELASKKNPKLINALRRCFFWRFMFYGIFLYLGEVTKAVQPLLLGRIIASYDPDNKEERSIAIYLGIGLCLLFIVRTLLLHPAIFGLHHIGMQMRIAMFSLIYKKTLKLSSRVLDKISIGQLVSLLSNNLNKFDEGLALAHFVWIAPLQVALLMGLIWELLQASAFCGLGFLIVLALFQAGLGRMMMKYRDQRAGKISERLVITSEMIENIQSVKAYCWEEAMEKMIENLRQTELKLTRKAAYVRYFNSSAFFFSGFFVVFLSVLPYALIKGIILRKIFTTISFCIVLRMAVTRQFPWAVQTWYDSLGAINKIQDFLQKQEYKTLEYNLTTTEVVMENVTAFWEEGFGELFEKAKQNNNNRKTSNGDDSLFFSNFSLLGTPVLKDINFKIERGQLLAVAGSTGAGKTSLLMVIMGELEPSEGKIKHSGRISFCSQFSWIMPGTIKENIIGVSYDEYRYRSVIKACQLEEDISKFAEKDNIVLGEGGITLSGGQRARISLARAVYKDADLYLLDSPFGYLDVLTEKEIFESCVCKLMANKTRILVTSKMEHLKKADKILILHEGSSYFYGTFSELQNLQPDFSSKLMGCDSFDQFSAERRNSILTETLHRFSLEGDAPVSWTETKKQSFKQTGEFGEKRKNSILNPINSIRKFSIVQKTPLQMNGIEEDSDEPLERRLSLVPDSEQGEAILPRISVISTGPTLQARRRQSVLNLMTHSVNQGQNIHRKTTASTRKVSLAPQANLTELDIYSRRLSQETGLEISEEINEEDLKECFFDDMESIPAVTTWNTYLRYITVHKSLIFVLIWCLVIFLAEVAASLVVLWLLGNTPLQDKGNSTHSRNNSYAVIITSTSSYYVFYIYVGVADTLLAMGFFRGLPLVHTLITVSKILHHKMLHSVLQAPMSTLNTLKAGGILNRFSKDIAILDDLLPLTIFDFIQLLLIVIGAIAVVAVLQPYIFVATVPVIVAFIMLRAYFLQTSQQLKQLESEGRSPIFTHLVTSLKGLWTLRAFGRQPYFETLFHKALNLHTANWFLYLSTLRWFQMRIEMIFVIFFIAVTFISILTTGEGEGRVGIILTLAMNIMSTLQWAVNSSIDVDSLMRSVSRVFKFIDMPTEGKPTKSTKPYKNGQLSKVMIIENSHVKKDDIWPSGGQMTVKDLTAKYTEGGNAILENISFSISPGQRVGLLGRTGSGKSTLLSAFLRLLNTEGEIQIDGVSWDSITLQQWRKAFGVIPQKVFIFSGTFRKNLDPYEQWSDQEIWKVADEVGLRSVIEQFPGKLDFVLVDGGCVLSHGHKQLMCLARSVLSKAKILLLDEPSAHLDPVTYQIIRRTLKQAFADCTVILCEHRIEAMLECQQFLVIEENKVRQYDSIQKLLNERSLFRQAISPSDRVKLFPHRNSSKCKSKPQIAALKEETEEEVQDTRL
Assay: Cell Surface Expression-Horse Radish Peroxidase (CSE-HRP) Assay;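 for EC50 (with co-corrector): co-corrector chromenyl benzoic acid corrector at 2 or 3 µM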;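 for Maximum % activity (without co-corrector): % of on-plate positive control chromenyl benzoic acid corrector at 2 or 3 µM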
Format: cell-based
Conditions: for Maximum % activity (with co-corrector) / Emax: maximum at any tested concentration; for Emax: read-out: Maximum % activity (without co-corrector)
In short: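 Corrector compounds were given as 8-point 3-fold series from 20 or 30 μM, with or without a 2 μM co-corrector, for 18-24 h at 33 °C. Surface HRP was read by luminol luminescence as % of positive control; variable-Hill-slope sigmoidal fitting gave EC50 from triplicate plates.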

[1] = test compound with co-corrector
[2] = test compound with co-corrector, read-out: EC50 (with co-corrector)
[3] = test compound without co-corrector
[4] = test compound without co-corrector, read-out: EC50 (without co-corrector)
[5] = test compound alone, without co-corrector, read-out: EC50 (without co-corrector)
[6] = with co-corrector, read-out: EC50 (with co-corrector)

Question: With COCC1CCN(c2ncc(C3CCC3)cc2C2(C(=O)NS(=O)(=O)c3cccc4[nH]ccc34)CC2)CC1 [Example GI-118, 1-{5-cyclobutyl-2-[4-(methoxymethyl)piperidin-1-yl]pyridin-3-yl}-N-(1H-indole-4-sulfonyl)cyclopropane-1-carboxamide] as the molecule, how does the “Maximum % activity (with co-corrector)” value [1] read?
Answer: +++ (≥350)

Question: What about the pEC50 [2] of the same molecule?
Answer: > 5.52

Question: What about the Emax [3] of the same molecule?
Answer: > 150%

Question: And the pEC50 [4]?
Answer: > 5.52

Question: How did the “Maximum % activity (with co-corrector)” value [1] turn out when COCC1(c2cnc(OC(C)C)c(C3(C(=O)NS(=O)(=O)c4cccc5ccccc45)CC3)c2)CC1 [Example GI-119, 1-{5-[1-(methoxymethyl)cyclopropyl]-2-[(propan-2-yl)oxy]pyridin-3-yl}-N-(naphthalene-1-sulfonyl)cyclopropane-1-carboxamide] was run?
Answer: +++ (≥350)

Question: What about the pEC50 [2] of the same molecule?
Answer: > 5.52

Question: What about the Emax [3] of the same molecule?
Answer: > 150%

Question: And the pEC50 [4]?
Answer: > 5.52

Question: How did the “Maximum % activity (with co-corrector)” value [1] turn out when CCc1cnc(N2CCC(COC)CC2)c(C2(C(=O)NS(=O)(=O)c3cccc4[nH]ccc34)CC2)c1 [Example GI-120, 1-{5-ethyl-2-[4-(methoxymethyl)piperidin-1-yl]pyridin-3-yl}-N-(1H-indole-4-sulfonyl)cyclopropane-1-carboxamide] was run?
Answer: +++ (≥350)

Question: And the pEC50 [2]?
Answer: > 5.52

Question: What about the Emax [3] of the same molecule?
Answer: > 150%

Question: And the pEC50 [4]?
Answer: 5.00 to 5.52

Question: With COCC1CCN(c2ncc(C3CCC3)cc2C2(C(=O)NS(=O)(=O)c3cccc4ncccc34)CC2)CC1 [Example GI-121, 1-{5-cyclobutyl-2-[4-(methoxymethyl)piperidin-1-yl]pyridin-3-yl}-N-(quinoline-5-sulfonyl)cyclopropane-1-carboxamide] as the molecule, how does the “Maximum % activity (with co-corrector)” value [1] read?
Answer: +++ (≥350)

Question: And the pEC50 [2]?
Answer: > 5.52

Question: What about the Emax [3] of the same molecule?
Answer: > 150%

Question: What about the pEC50 [4] of the same molecule?
Answer: > 5.52

Question: How did the pEC50 [5] turn out when COc1ccc(Br)cc1C1(C(=O)NS(=O)(=O)c2cccc3ccccc23)CC1 [Example I-1, 1-(5-bromo-2-methoxyphenyl)-N-(naphthalene-1-sulfonyl)cyclopropane-1-carboxamide] was run?
Answer: > 5.52

Question: What about the “Maximum % activity (with co-corrector)” value (with co-corrector) of the same molecule?
Answer: +++ (≥350)

Question: What about the pEC50 [6] of the same molecule?
Answer: > 5.52

Question: What about the Emax (without co-corrector) of the same molecule?
Answer: > 150%

Question: COc1ccc(C2CCC2)cc1C1(C(=O)NS(=O)(=O)c2cccc3ccccc23)CC1 [Example I-2, 1-(5-cyclobutyl-2-methoxyphenyl)-N-(naphthalene-1-sulfonyl)cyclopropane-1-carboxamide] was tested. Which pEC50 [5] did it give?
Answer: > 5.52

Question: And the “Maximum % activity (with co-corrector)” value (with co-corrector)?
Answer: +++ (≥350)

Question: And the pEC50 [6]?
Answer: > 5.52

Question: What about the Emax (without co-corrector) of the same molecule?
Answer: > 150%

Question: With COc1ncc(C2CCC2)cc1C1(C(=O)NS(=O)(=O)c2cccc3nc(C)ccc23)CC1 [Example I-3, 1-(5-cyclobutyl-2-methoxypyridin-3-yl)-N-(2-methylquinoline-5-sulfonyl)cyclopropane-1-carboxamide] as the molecule, how does the pEC50 [5] read?
Answer: > 5.52

Question: What about the “Maximum % activity (with co-corrector)” value (with co-corrector) of the same molecule?
Answer: +++ (≥350)

Question: What about the pEC50 [6] of the same molecule?
Answer: > 5.52

Question: What about the Emax (without co-corrector) of the same molecule?
Answer: > 150%

Question: With COc1ncc(C2CCC2)cc1C1(C(=O)NS(=O)(=O)c2cccc3ncccc23)CC1 [Example I-4, 1-(5-cyclobutyl-2-methoxypyridin-3-yl)-N-(quinoline-5-sulfonyl)cyclopropane-1-carboxamide] as the molecule, how does the pEC50 [5] read?
Answer: > 5.52

Question: What about the “Maximum % activity (with co-corrector)” value (with co-corrector) of the same molecule?
Answer: +++ (≥350)

Question: What about the pEC50 [6] of the same molecule?
Answer: > 5.52

Question: What about the Emax (without co-corrector) of the same molecule?
Answer: > 150%

Question: What does the source list for COc1ncc(C2CCC2)cc1C1(C(=O)NS(=O)(=O)c2cccc3ccccc23)CC1 [Example I-5, 1-(5-cyclobutyl-2-methoxypyridin-3-yl)-N-(naphthalene-1-sulfonyl)cyclopropane-1-carboxamide]?
Answer: pEC50 [5]: 5.00 to 5.52; Maximum % activity (with co-corrector) (with co-corrector): +++ (≥350); pEC50 [6]: > 5.52; Emax (without co-corrector): > 150%

Question: With COc1ncc(C2CCC2)cc1C1(C(=O)NS(=O)(=O)c2cccc3c2CCCN3)CC1 [Example I-6, 1-(5-cyclobutyl-2-methoxypyridin-3-yl)-N-(1,2,3,4-tetrahydroquinoline-5-sulfonyl)cyclopropane-1-carboxamide] as the molecule, how does the pEC50 [5] read?
Answer: > 5.52

Question: What about the “Maximum % activity (with co-corrector)” value (with co-corrector) of the same molecule?
Answer: +++ (≥350)

Question: What about the pEC50 [6] of the same molecule?
Answer: > 5.52

Question: What about the Emax (without co-corrector) of the same molecule?
Answer: > 150%

Question: With COc1cccc(OC)c1C1(C(=O)NS(=O)(=O)c2cccc3ccccc23)CC1 [Example I-7, 1-(2,6-dimethoxyphenyl)-N-(naphthalene-1-sulfonyl)cyclopropane-1-carboxamide] as the molecule, how does the pEC50 [5] read?
Answer: 5.00 to 5.52

Question: And the “Maximum % activity (with co-corrector)” value (with co-corrector)?
Answer: +++ (≥350)

Question: And the pEC50 [6]?
Answer: > 5.52

Question: And the Emax (without co-corrector)?
Answer: > 150%

Question: How did the pEC50 [5] turn out when COc1ncc(C(F)(F)F)cc1C1(C(=O)NS(=O)(=O)c2cccc3ccccc23)CC1 [Example I-8, 1-[2-methoxy-5-(trifluoromethyl)pyridin-3-yl]-N-(naphthalene-1-sulfonyl)cyclopropane-1-carboxamide] was run?
Answer: > 5.52

Question: And the “Maximum % activity (with co-corrector)” value (with co-corrector)?
Answer: +++ (≥350)

Question: What about the pEC50 [6] of the same molecule?
Answer: > 5.52

Question: And the Emax (without co-corrector)?
Answer: > 150%

Question: With COc1ccc(Br)cc1C1(C(=O)NS(=O)(=O)c2cccc3c2CCCN3)CCC1 [Example I-9, 1-(5-bromo-2-methoxyphenyl)-N-(1,2,3,4-tetrahydroquinoline-5-sulfonyl)cyclobutane-1-carboxamide] as the molecule, how does the pEC50 [5] read?
Answer: > 5.52

Question: And the “Maximum % activity (with co-corrector)” value (with co-corrector)?
Answer: +++ (≥350)

Question: What about the pEC50 [6] of the same molecule?
Answer: > 5.52

Question: And the Emax (without co-corrector)?
Answer: > 150%

Question: With COc1ccc(C2CCC2)cc1C1(C(=O)NS(=O)(=O)c2cccc3c2CCCN3)CCC1 [Example I-10, 1-(5-cyclobutyl-2-methoxyphenyl)-N-(1,2,3,4-tetrahydroquinoline-5-sulfonyl)cyclobutane-1-carboxamide] as the molecule, how does the pEC50 [5] read?
Answer: 5.00 to 5.52

Question: What about the “Maximum % activity (with co-corrector)” value (with co-corrector) of the same molecule?
Answer: +++ (≥350)

Question: And the pEC50 [6]?
Answer: > 5.52

Question: What about the Emax (without co-corrector) of the same molecule?
Answer: > 150%

Question: How did the pEC50 [5] turn out when COc1ccc(Br)cc1C1(C(=O)NS(=O)(=O)c2cccc3c2CCCN3)CC1 [Example I-11, 1-(5-bromo-2-methoxyphenyl)-N-(1,2,3,4-tetrahydroquinoline-5-sulfonyl)cyclopropane-1-carboxamide] was run?
Answer: > 5.52

Question: What about the “Maximum % activity (with co-corrector)” value (with co-corrector) of the same molecule?
Answer: +++ (≥350)

Question: What about the pEC50 [6] of the same molecule?
Answer: > 5.52

Question: What about the Emax (without co-corrector) of the same molecule?
Answer: > 150%

Question: How did the pEC50 [5] turn out when COc1ccc(C2CC2)cc1C1(C(=O)NS(=O)(=O)c2cccc3ccccc23)CC1 [Example I-12, 1-(5-cyclopropyl-2-methoxyphenyl)-N-(naphthalene-1-sulfonyl)cyclopropane-1-carboxamide] was run?
Answer: > 5.52

Question: And the “Maximum % activity (with co-corrector)” value (with co-corrector)?
Answer: +++ (≥350)

Question: What about the pEC50 [6] of the same molecule?
Answer: > 5.52

Question: What about the Emax (without co-corrector) of the same molecule?
Answer: > 150%

Question: COc1ccc(C2CC2)cc1C1(C(=O)NS(=O)(=O)c2cccc3ncccc23)CC1 [Example I-13, 1-(5-cyclopropyl-2-methoxyphenyl)-N-(quinoline-5-sulfonyl)cyclopropane-1-carboxamide] was tested. Which pEC50 [5] did it give?
Answer: > 5.52

Question: And the pEC50 [6]?
Answer: > 5.52

Question: What does the source list for COc1ccc(OC(C)C)cc1C1(C(=O)NS(=O)(=O)c2cccc3ncccc23)CC1 [Example I-14, 1-{2-methoxy-5-[(propan-2-yl)oxy]phenyl}-N-(quinoline-5-sulfonyl)cyclopropane-1-carboxamide]?
Answer: pEC50 [5]: > 5.52; Maximum % activity (with co-corrector) (with co-corrector): +++ (≥350); pEC50 [6]: > 5.52; Emax (without co-corrector): > 150%

Question: Which results are given for COc1ncc(C)cc1C1(C(=O)NS(=O)(=O)c2cccc3ccccc23)CC1 [Example I-15, 1-(2-methoxy-5-methylpyridin-3-yl)-N-(naphthalene-1-sulfonyl)cyclopropane-1-carboxamide]?
Answer: pEC50 [5]: 5.00 to 5.52; Maximum % activity (with co-corrector) (with co-corrector): +++ (≥350); pEC50 [6]: 5.00 to 5.52; Emax (without co-corrector): > 150%

Question: What does the source list for COc1ccc(C2CCC2)cc1C1(C(=O)NS(=O)(=O)c2cccc3c2CCCN3)CC1 [Example I-16, 1-(5-cyclobutyl-2-methoxyphenyl)-N-(1,2,3,4-tetrahydroquinoline-5-sulfonyl)cyclopropane-1-carboxamide]?
Answer: pEC50 [5]: 5.00 to 5.52; Maximum % activity (with co-corrector) (with co-corrector): +++ (≥350); pEC50 [6]: > 5.52; Emax (without co-corrector): > 150%

Question: What does the source list for COc1ccc(C2CCC2)cc1C1(C(=O)NS(=O)(=O)c2cccc3ncccc23)CC1 [Example I-17, 1-(5-cyclobutyl-2-methoxyphenyl)-N-(quinoline-5-sulfonyl)cyclopropane-1-carboxamide]?
Answer: pEC50 [5]: > 5.52; Maximum % activity (with co-corrector) (with co-corrector): +++ (≥350); pEC50 [6]: > 5.52; Emax (without co-corrector): > 150%

Question: How did the pEC50 [5] turn out when COc1ccc(Br)cc1C1(C(=O)NS(=O)(=O)c2cccc3ncccc23)CC1 [Example I-18, 1-(5-bromo-2-methoxyphenyl)-N-(quinoline-5-sulfonyl)cyclopropane-1-carboxamide] was run?
Answer: > 5.52

Question: And the “Maximum % activity (with co-corrector)” value (with co-corrector)?
Answer: +++ (≥350)

Question: And the pEC50 [6]?
Answer: > 5.52

Question: And the Emax (without co-corrector)?
Answer: > 150%

Question: What does the source list for COc1ncc(C2CCC2)cc1C1(C(=O)NS(=O)(=O)c2cccn3nccc23)CC1 [Example I-19, 1-(5-cyclobutyl-2-methoxypyridin-3-yl)-N-(pyrazolo[1,5-a]pyridine-4-sulfonyl)cyclopropane-1-carboxamide]?
Answer: pEC50 [5]: > 5.52; Maximum % activity (with co-corrector) (with co-corrector): +++ (≥350); pEC50 [6]: > 5.52; Emax (without co-corrector): > 150%

Question: What does the source list for COc1ncc(C2CCC2)cc1C1(C(=O)NS(=O)(=O)c2cccc3ccn(C)c23)CC1 [Example I-20, 1-(5-cyclobutyl-2-methoxypyridin-3-yl)-N-(1-methyl-1H-indole-7-sulfonyl)cyclopropane-1-carboxamide]?
Answer: pEC50 [5]: > 5.52; Maximum % activity (with co-corrector) (with co-corrector): +++ (≥350); pEC50 [6]: > 5.52; Emax (without co-corrector): > 150%

Question: How did the pEC50 [5] turn out when COc1ncc(C2CCC2)cc1C1(C(=O)NS(=O)(=O)c2cccc3[nH]ccc23)CC1 [Example I-21, 1-(5-cyclobutyl-2-methoxypyridin-3-yl)-N-(1H-indole-4-sulfonyl)cyclopropane-1-carboxamide] was run?
Answer: > 5.52

Question: What about the “Maximum % activity (with co-corrector)” value (with co-corrector) of the same molecule?
Answer: +++ (≥350)

Question: What about the pEC50 [6] of the same molecule?
Answer: > 5.52

Question: What about the Emax (without co-corrector) of the same molecule?
Answer: > 150%

Question: Which results are given for COc1ncc(C(F)(F)F)cc1C1(C(=O)NS(=O)(=O)c2cccc3[nH]ccc23)CC1 [Example I-22, N-(1H-indole-4-sulfonyl)-1-[2-methoxy-5-(trifluoromethyl)pyridin-3-yl]cyclopropane-1-carboxamide]?
Answer: pEC50 [5]: 5.00 to 5.52; Maximum % activity (with co-corrector) (with co-corrector): +++ (≥350); pEC50 [6]: > 5.52; Emax (without co-corrector): > 150%
